Assay results published in ChEMBL document CHEMBL1201862, “PubChem BioAssay data set” (2004).
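Interpolation was linear, between the two tested concentrations surrounding the appropriate level; five concentrations were tested over 48 hours in 96-well plates. GI50 is the concentration that inhibits growth by half.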 Activity calls are given as the source filed them. Cut-off read from the data, not from the text of the source: active = GI50 up to about 1.1 µM and inactive = higher.

What was measured:
Assay in all cases: NCI anticancer screen, dose series, 48 h
TK-10 = system: TK-10
KM-20L2 = system: KM-20L2
SW-620 = system: SW-620
NCI-H460 = system: NCI-H460
SF-268 = system: SF-268
LOX IMVI = system: LOX IMVI
A549 = system: A549
HCT-116 = system: HCT-116
SN12C = system: SN12C
OVCAR-5 = system: OVCAR-5
RPMI-8226 = system: RPMI-8226
M14 = system: M14
OVCAR-4 = system: OVCAR-4
Malme-3M = system: Malme-3M
M19-MEL = system: M19-MEL
XF498 = system: XF498

Measured: GI50

Cc1c(Cl)cccc1NC(=O)C(=O)C1C(=O)CC(C)(C)CC1=O
inactive: TK-10 > 100 µM | KM-20L2 > 100 µM | SW-620 > 100 µM | NCI-H460 > 100 µM | SF-268 > 100 µM | LOX IMVI > 100 µM | A549 > 100 µM | HCT-116 > 100 µM | SN12C > 100 µM | OVCAR-5 > 100 µM | RPMI-8226 > 100 µM | M14 > 100 µM | OVCAR-4 > 100 µM | Malme-3M > 100 µM | M19-MEL > 100 µM

NC(CCCNCc1ccccc1O)C(=O)O (stereo not drawn)
inactive: TK-10 > 100 µM | KM-20L2 > 100 µM | SW-620 > 100 µM | NCI-H460 > 100 µM | SF-268 > 100 µM | LOX IMVI > 100 µM | A549 > 100 µM | HCT-116 > 100 µM | SN12C > 100 µM | OVCAR-5 > 100 µM | RPMI-8226 > 100 µM | M14 > 100 µM | OVCAR-4 > 100 µM | Malme-3M > 100 µM | M19-MEL > 100 µM

O=C1NC2(CCCCCC2)C2CCCCCCC12O (stereo not drawn)
inactive: TK-10 > 100 µM | SW-620 > 100 µM | NCI-H460 > 100 µM | SF-268 > 100 µM | LOX IMVI > 100 µM | A549 > 100 µM | XF498 > 100 µM | HCT-116 > 100 µM | SN12C > 100 µM | OVCAR-5 > 100 µM | M14 > 100 µM | OVCAR-4 > 100 µM | Malme-3M > 100 µM | M19-MEL > 100 µM

O=C1Nc2ccccc2N/C1=C\C(=O)c1ccccc1O
inactive: TK-10 > 100 µM | KM-20L2 > 100 µM | SW-620 > 100 µM | NCI-H460 > 100 µM | SF-268 > 100 µM | LOX IMVI > 100 µM | A549 > 100 µM | HCT-116 > 100 µM | SN12C > 100 µM | OVCAR-5 > 100 µM | RPMI-8226 > 100 µM | M14 > 100 µM | OVCAR-4 > 100 µM | Malme-3M > 100 µM | M19-MEL > 100 µM

CC12OC3(O)C4C5CC(C6C5C3C61)C42 (stereo not drawn)
inactive: TK-10 > 100 µM | KM-20L2 > 100 µM | SW-620 > 100 µM | SF-268 > 100 µM | A549 > 100 µM | HCT-116 > 100 µM | SN12C > 100 µM | RPMI-8226 > 100 µM | M14 29.4 µM | OVCAR-4 > 100 µM | Malme-3M > 100 µM | M19-MEL > 100 µM

O=c1c2cccc3cccc(c4oc5c6cccc7cccc(c(=O)c5c14)c76)c32
inactive: TK-10 11.6 µM | KM-20L2 15.4 µM | SW-620 11.8 µM | NCI-H460 12.5 µM | SF-268 13 µM | LOX IMVI 12.2 µM | A549 2.06 µM | HCT-116 2.25 µM | SN12C 13.8 µM | OVCAR-5 27.2 µM | RPMI-8226 12.8 µM | M14 12.4 µM | Malme-3M 12.5 µM | M19-MEL 12 µM

CC(=O)SC(SC(C)=O)SC(C)=O
inactive: TK-10 > 100 µM | KM-20L2 > 100 µM | SW-620 > 100 µM | NCI-H460 > 100 µM | SF-268 > 100 µM | LOX IMVI 58.5 µM | A549 37.2 µM | HCT-116 > 100 µM | SN12C > 100 µM | OVCAR-5 > 100 µM | M14 > 100 µM | OVCAR-4 > 100 µM | Malme-3M > 100 µM | M19-MEL > 100 µM

O=CC1CCC=CC1NC(=O)OCc1ccccc1 (stereo not drawn)
inactive: TK-10 53.3 µM | SW-620 37.2 µM | NCI-H460 59.3 µM | SF-268 85.5 µM | LOX IMVI 48.4 µM | A549 > 100 µM | XF498 44.2 µM | HCT-116 19.1 µM | SN12C 35 µM | OVCAR-5 > 100 µM | RPMI-8226 40.5 µM | M14 33.9 µM | OVCAR-4 94.6 µM | M19-MEL 41.8 µM
